Measured values published in patent US7314858B2, “Retrocyclins: antiviral and antimicrobial peptides” (priority 2001, dated 2008).
Where a SMILES comes first, the peptide text is derived from it. Bridges are numbered along the chain shown (N, C = ends).

Molecular target: T1, gp120 (LAV) (Human immunodeficiency virus type 1 group M subtype B, UniProt P03377)
T1 construct: Glycosylated HIV-1 gp120 (LAV) envelope glycoprotein; purchased Protein Sciences Corporation, Meriden, Conn; 2003-LAV
Experiment: Surface plasmon resonance binding
Design: species or system HIV-1
Experimental: FIG. 20. Binding to gp120. These binding isotherms were measured by surface plasmon resonance, using a biosensor chip that contained immobilized, recombinant gp120. Various concentrations of RC-100 and RC-101 (0.05 to 0.5 μg/ml) flowed over the biosensor chip between minutes 1 to 4, to allow the “on rates” to be measured. At 4 minutes, the peptide-containing solutions were replaced by peptide-free medium, to ascertain the “off-rates.”
Surface plasmon resonance. Recombinant human soluble CD4 (full-length 45 kDa glycosylated ectodomain) was produced by ExpresSF+S. frugiperda cells in serum-free medium (Protein Sciences Corporation, Meriden, Conn.). Glycosylated HIV-1 gp120 (LAV) envelope glycoprotein (Catalog No. 2003-LAV) was purchased from the same source. Recombinant HIV-1BaL was obtained through the AIDS Research and Reference Reagent Program, Division of AIDS, National Institute of Allergy and Infectious Disease, NIH.
Surface plasmon resonance (SPR) experiments were done with a Biacore 2000 system (Biacore, Inc., Piscataway, N.J.). The running buffer (pH 7.4) contained 10 mM HEPES, 150 mM NaCl, 3 mM EDTA and 0.005% polysorbate 20. The immobilized proteins (gp120-LAV and CD4) were dissolved at 20 μg/ml in 10 mM sodium acetate, pH 5.0 and immobilized on a Biacore CM5 sensor chip using the amine coupling method. The chip was activated by mixing 400 mM EDC (N-ethyl-N-(3-dimethylaminopropyl)-carbodiimide hydrochloride) and 100 mM N-hydroxysuccinimide. An immobilization level of −6000 response units (RU) was attained for each bound protein. Residual reactive groups on the chip surface were blocked using 1.0 Methanolamine/HCl, pH 8.5.
The flow cell chip used as a control lacked immobilized protein but was otherwise treated as above. Signals were corrected for nonspecific binding by subtracting the control signal. To regenerate the chip surface, bound ligands were removed with 10 mM HCl. Data were analyzed with BIAevaluation 3.1 software. Curve fitting was done with an assumption of 1:1 binding.
We previously reported that the protection against HIV-1 afforded by retrocyclin-1 and its analogs was correlated to their binding to gp120 and CD4. In those experiments, biosensor chips containing immobilized gp120 or CD4 were perfused with a 1 μg/ml solution of the peptides, and binding was measured by surface plasmon resonance. When we compared binding by retrocyclin-1 and RC-101 in exactly the same manner, we saw very little difference between them. FIG. 20 compares the binding of lower concentrations of these peptides, ranging from 0.05 to 0.5 μg/ml, to immobilized gp120 LAV. From these binding isotherms, and from similar studies performed with biosensor chips containing immobilized gp120 BaL or CD4, the binding constants shown in Table 7 were obtained. […]

For CC[C@H](C)[C@@H]1NC(=O)CNC(=O)[C@H](CCCNC(=N)N)NC(=O)CNC(=O)[C@@H]2CSSC[C@H](NC1=O)C(=O)N[C@@H](CCCNC(=N)N)C(=O)N[C@H]1CSSC[C@H](NC(=O)[C@H](CCCNC(=N)N)NC(=O)[C@@H]3CSSC[C@H](NC(=O)[C@H]([C@@H](C)CC)NC1=O)C(=O)NCC(=O)N[C@@H](CCCNC(=N)N)C(=O)NCC(=O)N[C@@H]([C@@H](C)CC)C(=O)N3)C(=O)N[C@@H]([C@@H](C)CC)C(=O)N2 [RC-100, Retrocyclin] (cyclo(GICRCICGRGICRCICGR); disulfide 3-16, 5-14, 7-12), which koff is on record?
The koff was 0.00296 s⁻¹.

What about the kon of the same compound?
The kon was 80300 M⁻¹ s⁻¹.

Which results are given for CC[C@H](C)[C@@H]1NC(=O)CNC(=O)[C@H](CCCCN)NC(=O)CNC(=O)[C@@H]2CSSC[C@H](NC1=O)C(=O)N[C@@H](CCCNC(=N)N)C(=O)N[C@H]1CSSC[C@H](NC(=O)[C@H](CCCNC(=N)N)NC(=O)[C@@H]3CSSC[C@H](NC(=O)[C@H]([C@@H](C)CC)NC1=O)C(=O)NCC(=O)N[C@@H](CCCNC(=N)N)C(=O)NCC(=O)N[C@@H]([C@@H](C)CC)C(=O)N3)C(=O)N[C@@H]([C@@H](C)CC)C(=O)N2 [RC-101, R9K-Retrocyclin]?
koff: 0.00304 s⁻¹; kon: 97200 M⁻¹ s⁻¹
